Entries after “also recorded” stand apart in the source; their conditions may differ. One block for each molecule: values may come before it.
What was measured:
ERβ [1] = target: T1, ERβ (Homo sapiens, UniProt Q92731); assay: Luciferase reporter gene assay in HeLa cells, agonistic activity; assay type: cell-based; parameters: expressed in transfected cells; host or cells: HeLa; conditions: HeLa cells, WT ERβ; listed as BPA
Experimental: (§1) HeLa cells were maintained in Eagle's minimum essential medium (Nissui Pharmaceutical Co, Ltd) supplemented with DCC-treated fetal bovine serum (10%, v/v) at 37 °C under 5% CO2. […] After a 24-h incubation, luciferase activity was measured using the ONE-Glo Luciferase Assay System (Promega Co) on an EnSpire multimode plate reader (PerkinElmer, Inc).
Target sequence in this assay (Q92731 whole entry): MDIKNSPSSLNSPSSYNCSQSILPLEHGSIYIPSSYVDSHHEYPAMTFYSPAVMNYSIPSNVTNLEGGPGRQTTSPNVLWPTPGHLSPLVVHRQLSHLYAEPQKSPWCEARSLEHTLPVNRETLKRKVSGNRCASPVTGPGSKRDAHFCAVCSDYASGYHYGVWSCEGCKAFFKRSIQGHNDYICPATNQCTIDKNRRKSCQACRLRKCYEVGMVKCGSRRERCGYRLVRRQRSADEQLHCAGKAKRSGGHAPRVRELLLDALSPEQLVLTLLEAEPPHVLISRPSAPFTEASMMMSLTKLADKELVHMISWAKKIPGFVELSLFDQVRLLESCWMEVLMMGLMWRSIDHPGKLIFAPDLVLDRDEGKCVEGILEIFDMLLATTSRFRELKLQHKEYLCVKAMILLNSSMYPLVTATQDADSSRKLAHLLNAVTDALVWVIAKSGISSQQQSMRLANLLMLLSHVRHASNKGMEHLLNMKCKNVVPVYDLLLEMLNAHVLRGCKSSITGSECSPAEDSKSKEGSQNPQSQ

ERβ [2] = target: T1, ERβ; assay: Radioligand competitive binding assay with [3H]E2 for ERβ (GST-ERβ-LBD); parameters: made in house; host or cells: Escherichia coli BL21α; conditions: relative to E2
Experimental: Human ERβ cDNA was obtained from OriGene Technologies. The cDNA of ERβ-LBD was amplified using PCR and subcloned into a pGEX-6p-1 expression vector. The expression of GST-fused ERβ-LBD was induced by 1 mM IPTG in Escherichia coli BL21α at 16 °C for overnight. The resulting crude protein was affinity-purified using Glutathione-Sepharose 4B (Cytiva), followed by gel filtration using a Sephadex G-10 column (Cytiva).
Target sequence in this assay (Q92731 263-530): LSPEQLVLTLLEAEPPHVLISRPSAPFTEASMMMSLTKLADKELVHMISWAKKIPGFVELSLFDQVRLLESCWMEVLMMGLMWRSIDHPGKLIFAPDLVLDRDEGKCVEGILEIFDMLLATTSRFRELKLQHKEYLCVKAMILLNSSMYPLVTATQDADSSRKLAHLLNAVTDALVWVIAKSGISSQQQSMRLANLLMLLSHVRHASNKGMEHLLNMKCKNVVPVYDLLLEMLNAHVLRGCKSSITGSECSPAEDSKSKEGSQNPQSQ

ERβ [3] = target: T1, ERβ; assay: Competitive binding assay with [3H]4OHT for WT ERβ; parameters: made in house; host or cells: Escherichia coli BL21α; conditions: [3H]4OHT radioligand
Experimental: (§2) After successive incubation with 100 μl of 0.4% dextran-coated charcoal (DCC) (Sigma-Aldrich) in PBS (pH 7.4) on ice for 10 min, free radioligands bound to DCC were removed using a vacuum filtration system with a 96-well filtration plate (MultiScreenHTS HV, […], Merck KGaA) for the bound/free separation. The radioactivity of each eluent was measured using a liquid scintillation counter (LS6500; Beckman Coulter) and Clear-sol I (Nacalai Tesque Inc). […] Each compound was dissolved in dimethyl sulfoxide to prepare a 1.0 mM stock solution and further diluted to prepare serial dilutions (10^−12 M to 10^−5 M) in the binding buffer. […] Bound/free separation was performed as described above, and the radioactivity was determined using a MicroBeta microplate counter (PerkinElmer Inc). The IC50 value of each test compound was calculated from the dose–response curves generated via nonlinear regression analysis using Prism software (GraphPad Software Inc).
Target sequence in this assay (Q92731 263-530): as above

ERβ(W335A) [4] = target: T2, ERβ(W335A) (Homo sapiens, UniProt Q92731, W335A); assay: Luciferase reporter gene assay in HeLa cells, ERβ(W335A); assay type: cell-based; parameters: expressed in transfected cells; host or cells: HeLa
Experimental: as §1, with “After incubation for 24 h, cells were harvested and seeded onto 96-well plates at 5 × 10^4 cells/well, and then treated with a series of the test compounds (10^−12 M to 10^−5 M, final concentration) diluted with 1% bovine serum albumin/PBS (v/v). After” for “After”
Target sequence in this assay (Q92731 whole entry W335A): as the sequence (Q92731 whole entry) above, with W335A counted along it

ERβ(W335A) [5] = target: T2, ERβ(W335A); assay: Competitive binding assay for ERβ(W335A); parameters: made in house; host or cells: Escherichia coli BL21α (described for the wild-type LBD); conditions: Fig. 4B
Experimental: as §2
Target sequence in this assay (Q92731 263-530 W335A): as the sequence (Q92731 263-530) above, with W73A counted along it

ERβ [6] = target: T1, ERβ; assay: Luciferase reporter gene assay in HeLa cells, antagonistic activity against 10 nM E2; assay type: cell-based; parameters: expressed in transfected cells; host or cells: HeLa; conditions: against 10 nM E2-induced ERβ activation; 100 nM, 1 μM, 10 μM
Experimental: as §1
Target sequence in this assay (Q92731 whole entry): as the sequence (Q92731 whole entry) above

[7] = target: T3, GST-fused ligand-binding domain of human estrogen receptor β (amino acids 263–530) (human, UniProt Q92731 263-530); assay: SPR; Biacore T100; GST-ERβ-LBD without E2, captured on anti-GST antibody on a CM5 chip; SRC1 peptide injected; HBS-EP+ buffer; conditions: both partners purified
T3 construct: cDNA from OriGene Technologies; Subcloned into pGEX-6p-1; Captured on the chip through an anti-GST antibody; Incubated beforehand with 10 μM E2 or 10 μM BPC (small molecules) in two of the three SPR conditions; also called GST-ERβ-LBD; ERβ-LBD; source: E. coli BL21α, purified (Glutathione-Sepharose 4B, gel filtration on Sephadex G-10)

[8] = target: T3, GST-fused ligand-binding domain of …; assay: SPR; Biacore T100; GST-ERβ-LBD incubated with 10 μM E2 for 1 h, captured on anti-GST antibody on a CM5 chip at 25 °C; SRC1 peptide injected with E2; HBS-EP+ buffer (0.01 M Hepes pH 7.4, 0.15 M NaCl, 3 mM EDTA, 0.05% Surfactant P20); conditions: both partners purified
[9] = target: T3, GST-fused ligand-binding domain of …; assay: SPR; Biacore T100; GST-ERβ-LBD incubated with 10 μM BPC for 1 h, captured on anti-GST antibody on a CM5 chip at 25 °C; SRC1 peptide injected with BPC; HBS-EP+ buffer; conditions: both partners purified

T3 sequence (Q92731 263-530): as the sequence (Q92731 263-530) above

affinity for ERβ, times weaker than that of E2 (ERβ [2]): 400 times
shape of competitive binding curve, WT ERβ (ERβ [3]): sigmoidal curve
transcriptional activity on ERβ(W335A) (in words) (ERβ(W335A) [4]): lost
ERβ antagonist activity (in words) (ERβ [6]): did not elicit antagonistic activity
Molecule: CC(C)(c1ccc(O)cc1)c1ccc(O)cc1 [Compound 19, 4,4'-(propane-2,2-diyl)diphenol]
ERβ agonist activity (in words) (ERβ [1]): full agonist activity; also recorded: strongest ERβ agonistic activity; also recorded: strong transcriptional activity
shape of competitive binding curve, ERβ(W335A) (ERβ(W335A) [5]): typical sigmoidal competitive dose–response curve

Kd [7]: 9.1 µM
Kd [8]: 3.3 µM
Kd [9]: 16.4 µM
B1: SRC1 peptide (amino acids 685–697) derived from human nuclear receptor coactivator 1 (peptide)
peptide: ERHKILHRLLQEG
notes: source: synthetic peptide (ABI 433A, solid phase, Fmoc chemistry)
